Measurements taken from paper PMC11613437, “Prioritization of Eleven-Nineteen-Leukemia Inhibitors as Orally Available Drug Candidates for Acute Myeloid Leukemia” (Journal of Medicinal Chemistry, 2024).

Legend:
[1] = Body weight of xenografted NSG mice under treatment; assay type: in vivo
Excerpt: Animal studies were approved by the Texas A&M’s Institutional Animal Care and Use Committees. The 5 week-old female NSG mice (NOD.Cg-PrkdcscidIl2rgtm1Wjl/SzJ, Jackson Laboratory #005557) were ordered and kept under pathogen-free conditions for 1 week with free access to food and water after arrival for acclimation. Tumor models in these mice were then built by engrafting 1 × 10^6 MOLM-13-Luc cells (BPS Bioscience, 78372) through tail vein injection. Tumors were allowed to grow for 6 days, and then applied for treatment by oral gavage daily (day 0 was the beginning of treatment). Dosage of 200 or 400 mg/kg (vehicle of 5% DMSO, 45% PEG400, 2.5% Tween 80, and 47.5% water) was applied. Tumor growth was evaluated by bioluminescent imaging (BLI) using an IVIS In Vivo Imaging System by intraperitoneal injection of 150 mg/kg D-Luciferin potassium salt (MedChemExpress, HY-12591B). Their body weights were recorded every 2–3 days. Surviving mice were counted every day and the mortality was calculated. No animal was excluded from any of the analyses. The investigators were not blinded to allocation during experiments and outcome assessment.

ENL YEATS = target: T1, ENL YEATS (Homo sapiens, UniProt Q03111); experiment: AlphaScreen assay with biotinylated ENL-S1 peptide; conditions: inhibition of ENL YEATS binding to ENL-S1 peptide; mean ± SD, n = 3; read-out: Alpha IC50 (nM) for ENL YEATS
T1 construct: final concentrations of 100 nM His-ENL YEATS, 100 nM Biotin-ENL-S1
T1 sequence (Q03111 1-138 limits assumed): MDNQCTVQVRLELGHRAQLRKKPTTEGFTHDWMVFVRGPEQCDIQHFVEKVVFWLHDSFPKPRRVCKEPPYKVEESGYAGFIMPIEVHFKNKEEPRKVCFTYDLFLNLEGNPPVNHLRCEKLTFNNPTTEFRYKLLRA
Experimental: The AlphaScreen assay was carried out in 384-well plates. Manual assay setup was performed in a 40 μL reaction buffer (50 mM HEPES pH 7.4, 100 mM NaCl, 0.1% bovine serum albumin, and 0.05% CHAPS) with final concentrations of 100 nM His-ENL YEATS, 100 nM Biotin-ENL-S1, and 20 μg/mL of AlphaScreen donor and acceptor beads. The protein, peptide, and compounds were mixed and incubated for 1 h at room temperature and then incubated for 30 min in dark after adding the α beads. AlphaScreen-signals were detected by a multimode microplate reader (BioTeK Synergy Neo2) equipped with an Alpha-laser (PerkinElmer).

ENL YEATS domain = target: T2, ENL YEATS domain (Homo sapiens, UniProt Q03111); experiment: Biolayer interferometry (BLI); assay type: binding; conditions: biotinylated ENL YEATS on SSA biosensors, 1:1 model
T2 construct: Biotinylated-ENL YEATS was immobilized onto SSA biosensors; biotin (biotinylated)
T2 sequence (Q03111 1-138 limits assumed): T1 sequence (Q03111 1-138 limits assumed)
Experimental: Superstreptavidin biosensors were first incubated in an assay buffer (20 mM Tris, pH 7.8, 300 mM NaCl, 0.05% Tween 20, 0.1% DMSO) for 15 min. Sensors were coated with 40–60 μg/mL of biotinylated ENL for 15 min at room temperature. Inhibitors were serially diluted across a 96-well plate in a volume of 200 μL. Association of samples to either ENL- or uncoated reference sensors was measured over 300 s and dissociation over 300 s with baseline measurements (buffer only) for 300 s. All assays were run with continuous 1000 rpm shaking. Data were analyzed using the OctetRED data analysis software with reference subtraction in which reference uncoated sensors and reference samples were subtracted. Then, global kinetic fit was performed for all sonogram curves with a 1:1 model to get KD values.

MV4-11 cells = experiment: Cell toxicity assay (CCK-8), MV4-11; assay type: cell-based; conditions: Homo sapiens, MV4-11; 72 h treatment (superscript a)
Experimental: (§1) Approximately 1 × 10^4 JURKAT, MOLM-13, MV4-11 and HEK293T cells in RPMI 1640 (no phenol red) (100 μL) were added to a 96-well plate and treated with DMSO or a compound at indicated concentrations for 72 h or 8 days. Cell viability was measured using the CCK-8 kit (Abcam, ab228554) according to the manufacturer’s instructions.

MOLM-13 cells = experiment: Cell toxicity assay (CCK-8), MOLM-13; assay type: cell-based
Experimental: as §1

Compound	tolerability / body weight loss ([1]; 200 mg/kg PO QD)	IC50 (ENL YEATS) [nM]	Kd (ENL YEATS domain) [nM]	CC50 (MV4-11 cells) [µM]	tolerability / body weight loss ([1]; 400 mg/kg PO QD)	IC50 (MOLM-13 cells; 8 day treatment, n = 3, read-out: CC50 MOLM-13 (Cellular IC50, 8-days incubation)) [µM]	CC50 (MOLM-13 cells; Homo sapiens, MOLM-13, 72 h treatment (superscript a)) [µM]
CC(C)[C@H]1CCN1Cc1cc2cnc(NC(=O)c3ccc4nncn4c3)cc2[nH]1 [SR-C-107 (R), (R)-N-(2-((2-Isopropylazetidin-1-yl)methyl)-1H-pyrrolo[3,2-c]pyridin-6-yl)-[1,2,4]triazolo[4,3-a]pyridine-6-carboxamide]	no significant body weight loss observed	40	144				
CC(C)C1CCN1Cc1ccc(CNC(=O)c2ccc3nncn3c2)cc1 (stereo not drawn) [inhibitor 13]	no significant body weight loss observed	1260 ± 128		9.15	without significant body weight loss until day 15	6.01 ± 0.83	8.2
